What was measured:
[1] = test system: carrageenan thermal hyperalgesia response; test: Thermal hyperalgesia from intraplantar carrageenan in rats (Paw Withdrawal Latency); type: in vivo; conditions: rat; for % Inhibition (1 hr): DOSE (PO) 10, 1 hour after drug administration; for % Inhibition (2 hr): DOSE (PO) 10, 2 hours after drug administration; for % Inhibition (3 hr): DOSE (PO) 10, 3 hours after drug administration
Method: The analgesic activity of the compounds of the present invention was assessed by a test with rats. […] The rats were placed on a glass plate with illumination from a halogen lamp placed directly under the injected paw. The time (in seconds) from beginning illumination until the hindlimb was withdrawn from the glass was measured and scored as Paw Withdrawal Latency (PWL). Drug substances were given by oral gavage injection 21⁄2 hours after carrageenan injection to the footpad. PWL was measured prior to carrageenan injection, just prior to drug injection, and 1, 2 (and sometimes 3) hours after drug injection. Carrageenan (a polysaccharide extracted from seaweed) causes a sterile inflammation when injected under the skin. Injection into the rat footpad causes little or no spontaneous pain-related behavior but induces hyperalgesia (pain-related behavioral responses of greater intensity than expected) to peripheral thermal or mechanical stimuli. This hyperalgesia is maximal 2 to 3 hours after injection. Treatment of rats with various analgesic drugs reduces hyperalgesia measured in this way and is a conventional test for detection of analgesic activity in rats. […] Inhibition of the carrageenan thermal hyperalgesia response was determined by the difference between reduced PWL prior to drug and subsequent to drug treatment, and was expressed as percent inhibition of the response. […] Inhibition indicates and analgesic effect.

[2] = test system: MEK; test: Cellular Assay for Measuring MEK Inhibition (inhibition of ERK phosphorylation in C26 cells, Western blot); type: cell-based, murine; conditions: inhibition of ERK phosphorylation in murine colon 26 (C26) carcinoma cells; determined graphically from dose response curve
Procedure, shortened: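 Read-out is phospho-ERK1/2 by Western blot, normalized against total ERK1/2 after stripping and re-probing. Murine C26 colon carcinoma cells in exponential growth were exposed to a range of compound concentrations at 37° C before lysis.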

SMILES | melting point | IC50 [2] | % Inhibition (1 hr) [1] | % Inhibition (2 hr) [1] | % Inhibition (3 hr) [1]
O=C(NOCC(O)CO)c1cc(Cl)c(F)c(F)c1Nc1ccc(I)cc1F (stereo not shown) [Example 41, 5-Chloro-N-(2,3-dihydroxy-propoxy)-3,4-difluoro-2-(2-fluoro-4-iodo-phenylamino)-benzamide] | 152 to 155 °C | 0.73 nM | 26.7% | 61.0% | 
O=C(NOC[C@@H](O)CO)c1cc(Cl)c(F)c(F)c1Nc1ccc(I)cc1F [Example 54] | 157 to 158 °C | 1.2 nM | 49% | 52.9% | 29.6%
Cc1cc(I)ccc1Nc1c(C(=O)NOC(C)(C)CO)ccc(F)c1F [Example 63, 3,4-Difluoro-N-(2-hydroxy-1,1-dimethyl-ethoxy)-2-(4-iodo-2-methyl-phenylamino)-benzamide] | 175 to 176 °C | 47 nM |  |  | 
CC(C)(CO)ONC(=O)c1ccc(F)c(F)c1Nc1ccc(I)cc1F [Example 65, 3,4-Difluoro-2-(2-fluoro-4-iodo-phenylamino)-N-(2-hydroxy-1,1-dimethyl-ethoxy)-benzamide] | 182 to 183 °C | 14 nM |  |  | 
CC(C)(CO)ONC(=O)c1cc(Cl)c(F)c(F)c1Nc1ccc(I)cc1F [Example 66, 5-Chloro-3,4-difluoro-2-(2-fluoro-4-iodo-phenylamino)-N-(2-hydroxy-1,1-dimethyl-ethoxy)-benzamide] | 178 to 180 °C | 2 nM |  |  | 
CC(C)(O)CONC(=O)c1ccc(F)c(F)c1Nc1ccc(I)cc1F [Example 67, 3,4-Difluoro-2-(2-fluoro-4-iodo-phenylamino)-N-(2-hydroxy-2-methyl-propoxy)-benzamide] | 156.7 to 156.9 °C | 6 nM |  |  | 
Cc1cc(I)ccc1Nc1c(C(=O)NOCC2(CO)CC2)ccc(F)c1F [Example 70, 3,4-Difluoro-N-(1-hydroxymethyl-cyclopropylmethoxy)-2-(4-iodo-2-methyl-phenylamino)-benzamide] | 165.4 to 165.6 °C | 200 nM |  |  | 
CC(C)(O)C(O)CONC(=O)c1ccc(F)c(F)c1Nc1ccc(I)cc1F (stereo not shown) [Example 76, N-(2,3-Dihydroxy-3-methyl-butoxy)-3,4-difluoro-2-(2-fluoro-4-iodo-phenylamino)-benzamide] | 180 to 183 °C | 6 nM |  |  | 
CNCCONC(=O)c1ccc(F)c(F)c1Nc1ccc(I)cc1C [Example 78, 3,4-Difluoro-2-(4-iodo-2-methyl-phenylamino)-N-(2-methylamino-ethoxy)-benzamide] | 183 to 185 °C (dec.) | 230 nM |  |  | 
O=C(c1ccc(F)c(F)c1Nc1ccc(I)cc1F)N1CC(O)CO1 (stereo not shown) [Example 83, [3,4-Difluoro-2-(2-fluoro-4-iodo-phenylamino)-phenyl]-(4-hydroxy-isoxazolidin-2-yl)-methanone] | 122 to 124 °C | 41 nM |  |  | 
O=C(NOCC(O)CO)c1ccc(F)c(F)c1Nc1ccccc1F (stereo not shown) [Example 85, N-(2,3-Dihydroxy-propoxy)-3,4-difluoro-2-(2-fluoro-phenylamino)-benzamide] | 113 to 115 °C | 54 nM |  |  | 

Now from value to compound, other results behind:

melting point | IC50 [2] | SMILES | % Inhibition (1 hr) [1] | % Inhibition (2 hr) [1] | % Inhibition (3 hr) [1]
152 to 154 °C | 1 nM | O=C(NOCC(O)CO)c1cc(Cl)c(F)c(F)c1Nc1ccc(I)cc1Cl (stereo not shown) [Example 34] | 39.6% | 61.5% | 
155 to 156 °C | 3.8 nM | O=C(NOC[C@H](O)CO)c1cc(Cl)c(F)c(F)c1Nc1ccc(I)cc1Cl [Example 51, 5-Chloro-2-(2-chloro-4-iodo-phenylamino)-N-[(R)-2,3-dihydroxy-propoxy]-3,4-difluoro-benzamide] |  |  | 
153 to 154 °C | 7.8 nM | O=C(NOC[C@@H](O)CO)c1cc(Cl)c(F)c(F)c1Nc1ccc(I)cc1Cl [Example 52, 5-Chloro-2-(2-chloro-4-iodo-phenylamino)-N-[(S)-2,3-dihydroxy-propoxy]-3,4-difluoro-benzamide] |  |  | 
52 °C | 4.5 nM | O=C(NOC[C@H](O)CO)c1ccc(F)c(F)c1Nc1ccc(Br)cc1F [Example 55, 2-(4-Bromo-2-fluoro-phenylamino)-N-((R)-2,3-dihydroxy-propoxy)-3,4-difluoro-benzamide] | 36.8% | 60% | 22%
103.5 to 104 °C | 60 nM | C=COCCONC(=O)c1ccc(F)cc1Nc1ccc(I)cc1F [Example 58, 4-Fluoro-2-(2-fluoro-4-iodo-phenylamino)-N-(2-vinyloxy-ethoxy)-benzamide] |  |  | 
128 to 130 °C | 150 nM | C=COCCONC(=O)c1cc(Br)c(F)c(F)c1Nc1ccc(I)cc1F [Example 61, 5-Bromo-3,4-difluoro-2-(2-fluoro-4-iodo-phenylamino)-N-(2-vinyloxy-ethoxy)-benzamide] |  |  | 
179 to 181 °C | 18 nM | CC(C)(CO)ONC(=O)c1cc(Br)c(F)c(F)c1Nc1ccc(I)cc1Cl [Example 62, 5-Bromo-2-(2-chloro-4-iodo-phenylamino)-3,4-difluoro-N-(2-hydroxy-1,1-dimethyl-ethoxy)-benzamide] |  |  | 
140 to 153 °C | 13 nM | CC(C)(O)CONC(=O)c1ccc(F)c(F)c1Nc1ccc(I)cc1Cl [Example 64, 2-(2-Chloro-4-iodo-phenylamino)-3,4-difluoro-N-(2-hydroxy-2-methyl-propoxy)-benzamide] |  |  | 
136.2 to 136.5 °C | 24 nM | COCC(O)CONC(=O)c1ccc(F)c(F)c1Nc1ccc(I)cc1C (stereo not shown) [Example 68] |  |  | 
139.5 to 140.1 °C | 60 nM | COCC(O)CONC(=O)c1cc(Br)c(F)c(F)c1Nc1ccc(I)cc1Cl (stereo not shown) [Example 69, 5-Bromo-2-(2-chloro-4-iodo-phenylamino)-3,4-difluoro-N-(2-hydroxy-3-methoxy-propoxy)-benzamide] |  |  | 
152.6 to 153.9 °C | 120 nM | O=C(NOCC1(CO)CC1)c1cc(Br)c(F)c(F)c1Nc1ccc(I)cc1Cl [Example 71, 5-Bromo-2-(2-chloro-4-iodo-phenylamino)-3,4-difluoro-N-(1-hydroxymethyl-cyclopropylmethoxy)-benzamide] |  |  | 
175.2 to 175.5 °C | 19 nM | Cc1cc(I)ccc1Nc1c(C(=O)NOCC(O)C(F)(F)F)ccc(F)c1F (stereo not shown) [Example 72, 3,4-Difluoro-2-(4-iodo-2-methyl-phenylamino)-N-(3,3,3-trifluoro-2-hydroxy-propoxy)-benzamide] |  |  | 
186.9 to 187.3 °C | 80 nM | O=C(NOCC(O)C(F)(F)F)c1cc(Br)c(F)c(F)c1Nc1ccc(I)cc1Cl (stereo not shown) [Example 73, 5-Bromo-2-(2-chloro-4-iodo-phenylamino)-3,4-difluoro-N-(3,3,3-trifluoro-2-hydroxy-propoxy)-benzamide] |  |  | 

Reference: patent publication US6960614B2, “Oxygenated esters of 4-lodo phenylamino benzhydroxamic acids” (Warner-Lambert Company, priority 2000, dated 2005)
